Measured values from publication PMC8266232, “Design, synthesis, and analysis of antiproliferative and apoptosis-inducing activities of nitrile derivatives containing a benzofuran scaffold: EGFR inhibition assay and molecular modelling study” (Journal of Enzyme Inhibition and Medicinal Chemistry, 2021).
Where two headings read alike, the source gives them in different places.

Experiments:
WI38 normal cell = assay: MTT cytotoxicity on normal fibroblast cells; type: cell-based; settings: Homo sapiens, WI-38; MTT assay, non tumour normal cell WI38
[1] = test system: PC3 cells (human prostate carcinoma); assay: MTT antiproliferative assay, PC3; type: cell-based; settings: PC-3, PC3, triplicate, read-out: In vitro cytotoxicity IC50, PC3
Description: (§1) The in vitro antiproliferative activity of all synthesised compounds was evaluated by an MTT assay according to the reported method[47]^,[48].
(§2) 2. Experimental procedure
(§3) 2.1. Antiproliferative screening
(§4) The in vitro antiproliferative activity of all synthesized compounds was evaluated by an MTT assay according to the reported method using five different human cancer cell lines, including […]
(§5) cervical carcinoma (HeLa), and human prostate cancer (PC-3). The cell lines were obtained from ATCC via a holding company for biological products and vaccines (VACSERA), Cairo, Egypt. The MTT assay is a colorimetric assay used for measuring the cellular growth based on the reduction of the yellow MTT to a purple formazan derivative by mitochondrial succinate dehydrogenase in viable cells. The color intensity of the formazan dye is correlated to the number of viable cells. The […]
(§6) IC50% values were calculated using dose response curves. The percentage of relative cell viability was calculated as (A570 of treated samples)/(A570 of untreated sample) × 100. The cytotoxic activity was defined as the concentration of the compound that caused 50% growth inhibition compared with the growth of an untreated cell. […]

[2] = test system: HePG2, HCT-116, MCF-7, PC3, HeLa cell lines; assay: MTT antiproliferative assay, IC50 range over the cancer cell line panel; type: cell-based; settings: Homo sapiens, HePG2, HCT-116, MCF-7, PC3, HeLa, read-out: IC50 range over all tested cancer cell lines
Description: as §1, §2, §3, §4, §5, §6

[3] = test system: HePG2 cells (hepatocellular carcinoma); assay: MTT antiproliferative assay, HePG2; type: cell-based, human; settings: HePG2, triplicate, read-out: In vitro cytotoxicity IC50, HePG2
Description: as §1, §2, §3, §4, §5, §6

[4] = test system: MCF-7 cells (human breast adenocarcinoma); assay: MTT antiproliferative assay, MCF-7; type: cell-based; settings: Homo sapiens, MCF7, MTT assay, MCF-7, triplicate; read-out: In vitro cytotoxicity IC50, MCF-7
Description: as §1, §2, §3, §4, §5, §6

[5] = test system: HeLa cells (cervical carcinoma); assay: MTT antiproliferative assay, HeLa; type: cell-based, human; settings: Homo sapiens, triplicate, read-out: In vitro cytotoxicity IC50, HeLa
Description: as §1, §2, §3, §4, §5, §6

[6] = test system: HCT-116 cells (colorectal carcinoma); assay: MTT antiproliferative assay, HCT-116; type: cell-based, human; settings: HCT-116, triplicate, read-out: In vitro cytotoxicity IC50, HCT-116
Description: as §1, §2, §3, §4, §5, §6

EGFR TK = target: T1, EGFR TK (Homo sapiens, UniProt P00533); assay: EGFR TK inhibition assay (luminescent, Kinase-Glo MAX); type: biochemical
T1 construct: add 20 μl of diluted EGFR enzyme and incubate at 30°C for 40
T1 sequence (P00533 25-1210): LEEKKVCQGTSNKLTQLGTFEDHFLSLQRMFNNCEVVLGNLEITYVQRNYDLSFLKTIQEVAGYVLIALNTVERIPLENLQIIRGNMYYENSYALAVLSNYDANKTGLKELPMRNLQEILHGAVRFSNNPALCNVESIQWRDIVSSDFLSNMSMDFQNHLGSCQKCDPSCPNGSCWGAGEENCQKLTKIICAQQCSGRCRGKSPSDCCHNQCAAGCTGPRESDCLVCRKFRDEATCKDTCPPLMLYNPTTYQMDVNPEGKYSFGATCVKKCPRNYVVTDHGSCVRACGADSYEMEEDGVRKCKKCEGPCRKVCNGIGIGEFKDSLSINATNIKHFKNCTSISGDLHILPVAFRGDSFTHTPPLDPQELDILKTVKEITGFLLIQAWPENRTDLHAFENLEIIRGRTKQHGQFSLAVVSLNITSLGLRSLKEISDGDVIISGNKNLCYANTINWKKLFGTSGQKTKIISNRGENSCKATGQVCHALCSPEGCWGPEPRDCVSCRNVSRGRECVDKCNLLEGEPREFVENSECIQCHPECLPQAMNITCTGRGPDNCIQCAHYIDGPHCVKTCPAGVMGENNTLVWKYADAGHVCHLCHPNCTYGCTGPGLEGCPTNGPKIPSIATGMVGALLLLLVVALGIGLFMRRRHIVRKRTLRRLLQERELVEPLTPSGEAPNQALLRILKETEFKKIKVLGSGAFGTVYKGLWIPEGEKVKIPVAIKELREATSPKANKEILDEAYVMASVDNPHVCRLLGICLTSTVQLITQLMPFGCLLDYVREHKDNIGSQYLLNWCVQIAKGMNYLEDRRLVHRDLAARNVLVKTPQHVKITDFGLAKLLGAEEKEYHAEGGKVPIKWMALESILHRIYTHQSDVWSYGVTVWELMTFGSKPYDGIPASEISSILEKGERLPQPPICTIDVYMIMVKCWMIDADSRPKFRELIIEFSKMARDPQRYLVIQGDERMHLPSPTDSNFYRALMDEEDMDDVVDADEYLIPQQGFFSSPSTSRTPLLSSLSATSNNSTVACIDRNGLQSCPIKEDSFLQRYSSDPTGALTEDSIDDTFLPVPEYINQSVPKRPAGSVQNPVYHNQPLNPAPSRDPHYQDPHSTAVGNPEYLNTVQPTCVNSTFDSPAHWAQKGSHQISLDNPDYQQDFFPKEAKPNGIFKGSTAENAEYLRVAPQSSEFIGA
Description: 2.2. Epidermal growth factor inhibition assay
In vitro luminescent EGFR tyrosine kinase assay, using Kinase-Glo® MAX as a detection reagent using DP‐Glo™ reagent that measures the adenosine diphosphate (ADP) formed from a kinase reaction, were performed; this luminescent signal positively correlates with ADP amount and kinase activity. In 17 μl of distilled water, 6 μl of Kinase assay buffer and 1 μl ATP and 1 μl PTK substrate were mixed (master mixture). In every well, mix 20 μl of the master mixture and 5 μl of Inhibitor solution (Test Inhibitor) for positive control, and use 5 μl of the same solution without inhibitor (Inhibitor buffer) as the blank solution; add 20 μl of diluted EGFR enzyme and incubate at 30°C for 40

HCT-116 cells [7] = assay: Cell cycle analysis by PI flow cytometry, HCT-116; settings: HCT-116, 10 µM, 24 h
Description: (§7) A comparison was made to the control (DMSO) and reference (gefitinib).
(§8) Cell cycle analysis and induction of apoptosis
(§9) Flow cytometry analysis of the cell cycle distribution
(§10) incubation period, the cells were collected, centrifuged, and ﬁxed with ice-cold ethanol (70%). The cells were subsequently treated with a buffer containing RNAse A and 0.1% Triton X-100, and stained
(§11) with PI. The cells were compared with the control, which was treated with DMSO. The DNA content
was measured by flow cytometry [50-52].

MCF-7 cells [8] = assay: Cell cycle analysis by PI flow cytometry, MCF-7; settings: MCF-7, 10 µM, 24 h
Description: as §7, §8, §9, §10, §11
was measured by flow cytometry [50-52].

MCF-7 cells [9] = assay: Annexin V-FITC/PI apoptosis assay, MCF-7; settings: MCF-7, 10 µM, 24 h
Description: as §7
(§12) The cell line samples were analysed using FACSCalibur flow cytometer.
(§13) with PI. The cells were compared with the control, which was treated with DMSO.
Analysis of cellular apoptosis
(§14) concentration, respectively, and then incubated for 24 h. Following incubation, 1 –5 × 10^5 cells were
(§15) harvested and suspended in 500 µ L of the binding buffer, 5 µ L of annexin V-FITC, and 5 µL of PI.
(§16) annexin V-FITC conjugate is specially engineered to produce an enhanced fluorescence signal and
(§17) photostability. The annexin V-FITC kit included annexin V-FITC for detecting apoptosis as well as PI
(§18) for detecting necrosis. Thus, apoptosis and necrosis could be effectively differentiated. Detection and
(§19) analysis of the annexin V-FITC binding by flow cytometry was conducted using a FITC signal
(§20) detector (typically FL1). PI staining was evaluated by a phycoerythrin emission signal detector

HCT-116 cells [10] = assay: Annexin V-FITC/PI apoptosis assay, HCT-116; settings: HCT-116, 10 µM, 24 h
Description: as §7, §12, §13
Analysis of cellular apoptosis
as §14, §15, §16, §17, §18, §19, §20

[11] = Homo sapiens, HCT-116, MTT assay

Row | melting point [°C] | Compound | IC50 (WI38 normal cell) [µM] | IC50 [1] [µM] | IC50 ([3]; Homo sapiens, HepG2, MTT assay) [µM] | IC50 [4] [µM] | IC50 [5] [µM] | IC50 [6, 11] [µM] | also measured
1 | 186 to 188 | N#Cc1c(-c2cc3ccccc3o2)ccnc1NC1CCCCC1 [Compound 9, 4-(Benzofuran-2-yl)-2-(cyclohexylamino)nicotinonitrile] |  | 51.1 ± 3.6 | 44.7 ± 2.7 | 35.2 ± 2.2 | 73.6 ± 4.1 | 29.5 ± 1.8 | 
2 | 180 to 182 | N#Cc1c(-c2cc3ccccc3o2)ccnc1NCc1ccccc1 [Compound 10, 4-(Benzofuran-2-yl)-2-(benzylamino)nicotinonitrile] |  | 30.9 ± 2.6 | 34.3 ± 2.1 | 19.7 ± 1.6 | 46.2 ± 3 | 27.5 ± 1.5 | IC50 (EGFR TK): 1.12 µM
3 | 156 to 158 | COc1ccc(CCNc2nccc(-c3cc4ccccc4o3)c2C#N)cc1 [Compound 12, 4-(Benzofuran-2-yl)-2-(4-methoxyphenethylamino)nicotinonitrile] | 76.3 ± 4.14 | 93.5 ± 4.4 | 70.5 ± 3.8 | 61.5 ± 3.5 | 85.4 ± 4.7 | 49.7 ± 2.9 | 

Continued, compound first:

Row | Compound | melting point [°C] | IC50 (WI38 normal cell) [µM] | IC50 [1] [µM] | IC50 ([3]; Homo sapiens, HepG2, MTT assay) [µM] | IC50 [4] [µM] | IC50 [5] [µM] | IC50 [6, 11] [µM] | also measured
4 | N#Cc1c(-c2cc3ccccc3o2)ccnc1NCCO [Compound 7, 4-(Benzofuran-2-yl)-2-(2-hydroxyethylamino)nicotinonitrile] | 164 to 166 | 59.5 ± 3.23 | 70.1 ± 3.8 | 53.4 ± 2.9 | 40.8 ± 2.5 | 73.3 ± 4.2 | 38.6 | IC50 [2]: 38.6 to 73.3 µM; IC50 ([6]; MTT assay): 38.6 ± 2 µM
5 | N#Cc1c(-c2cc3ccccc3o2)ccnc1NCCCO [Compound 8, 4-(Benzofuran-2-yl)-2-(3-hydroxypropylamino)nicotinonitrile] | 124 to 126 | 151 ± 8.22 | 36.7 ± 2.8 | 16.1 to 23.7 |  | 58.8 ± 3.7 | 8.81 to 13.8 | IC50 [2]: 13.8 to 58.8 µM; IC50 ([3]; MTT assay): 23.7 ± 1.8 µM; IC50 (EGFR TK): 4.24 µM; IC50 ([6]; MTT assay): 13.8 ± 1.3 µM
6 | COc1cccc2c1C(=O)c1c(O)c3c(c(O)c1C2=O)C[C@@](O)(C(=O)CO)C[C@@H]3O[C@H]1C[C@H](N)[C@H](O)[C@H](C)O1 [DOX, Doxorubicin, reference compound] |  | 55.3 ± 3 |  | 4.5 ± 0.2 |  |  |  | 
7 | COc1cc2ncnc(Nc3ccc(F)c(Cl)c3)c2cc1OCCCN1CCOCC1 [Gefitinib, reference compound] |  |  |  |  |  |  |  | %Pre/G1 (HCT-116 cells [7]; control 0.39, '% Apoptosis' in Figure 5A): 16.49%; %G2/M (HCT-116 cells [7]; control 4.19): 21.71%; %S (HCT-116 cells [7]; control 25.21): 13.34%; %G0/G1 (HCT-116 cells [7]; control 70.21): 48.37%; %Pre/G1 (MCF-7 cells [8]; control 0.55, '% Apoptosis' in Figure 6A): 13.55%; %G2/M (MCF-7 cells [8]; control 3.66): 23.63%; %S (MCF-7 cells [8]; control 27.37): 16.51%; %G0/G1 (MCF-7 cells [8]; control 66.42): 46.31%; Necrosis (MCF-7 cells [9]; control 0.15): 1.64%; Early apoptosis (MCF-7 cells [9]; control 0.16): 4.28%; Late apoptosis (MCF-7 cells [9]; control 0.24): 7.63%; Apoptosis, Total (MCF-7 cells [9]; control 0.55): 13.55%; Late apoptosis (HCT-116 cells [10]; control 0.11): 7.47%; Necrosis (HCT-116 cells [10]; control 0.12): 1.8%; Early apoptosis (HCT-116 cells [10]; control 0.16): 7.22%; Apoptosis, Total (HCT-116 cells [10]; control 0.39): 16.49%
